Structures are written as SMILES.

human Nav1.7, sequence (Q15858 whole entry): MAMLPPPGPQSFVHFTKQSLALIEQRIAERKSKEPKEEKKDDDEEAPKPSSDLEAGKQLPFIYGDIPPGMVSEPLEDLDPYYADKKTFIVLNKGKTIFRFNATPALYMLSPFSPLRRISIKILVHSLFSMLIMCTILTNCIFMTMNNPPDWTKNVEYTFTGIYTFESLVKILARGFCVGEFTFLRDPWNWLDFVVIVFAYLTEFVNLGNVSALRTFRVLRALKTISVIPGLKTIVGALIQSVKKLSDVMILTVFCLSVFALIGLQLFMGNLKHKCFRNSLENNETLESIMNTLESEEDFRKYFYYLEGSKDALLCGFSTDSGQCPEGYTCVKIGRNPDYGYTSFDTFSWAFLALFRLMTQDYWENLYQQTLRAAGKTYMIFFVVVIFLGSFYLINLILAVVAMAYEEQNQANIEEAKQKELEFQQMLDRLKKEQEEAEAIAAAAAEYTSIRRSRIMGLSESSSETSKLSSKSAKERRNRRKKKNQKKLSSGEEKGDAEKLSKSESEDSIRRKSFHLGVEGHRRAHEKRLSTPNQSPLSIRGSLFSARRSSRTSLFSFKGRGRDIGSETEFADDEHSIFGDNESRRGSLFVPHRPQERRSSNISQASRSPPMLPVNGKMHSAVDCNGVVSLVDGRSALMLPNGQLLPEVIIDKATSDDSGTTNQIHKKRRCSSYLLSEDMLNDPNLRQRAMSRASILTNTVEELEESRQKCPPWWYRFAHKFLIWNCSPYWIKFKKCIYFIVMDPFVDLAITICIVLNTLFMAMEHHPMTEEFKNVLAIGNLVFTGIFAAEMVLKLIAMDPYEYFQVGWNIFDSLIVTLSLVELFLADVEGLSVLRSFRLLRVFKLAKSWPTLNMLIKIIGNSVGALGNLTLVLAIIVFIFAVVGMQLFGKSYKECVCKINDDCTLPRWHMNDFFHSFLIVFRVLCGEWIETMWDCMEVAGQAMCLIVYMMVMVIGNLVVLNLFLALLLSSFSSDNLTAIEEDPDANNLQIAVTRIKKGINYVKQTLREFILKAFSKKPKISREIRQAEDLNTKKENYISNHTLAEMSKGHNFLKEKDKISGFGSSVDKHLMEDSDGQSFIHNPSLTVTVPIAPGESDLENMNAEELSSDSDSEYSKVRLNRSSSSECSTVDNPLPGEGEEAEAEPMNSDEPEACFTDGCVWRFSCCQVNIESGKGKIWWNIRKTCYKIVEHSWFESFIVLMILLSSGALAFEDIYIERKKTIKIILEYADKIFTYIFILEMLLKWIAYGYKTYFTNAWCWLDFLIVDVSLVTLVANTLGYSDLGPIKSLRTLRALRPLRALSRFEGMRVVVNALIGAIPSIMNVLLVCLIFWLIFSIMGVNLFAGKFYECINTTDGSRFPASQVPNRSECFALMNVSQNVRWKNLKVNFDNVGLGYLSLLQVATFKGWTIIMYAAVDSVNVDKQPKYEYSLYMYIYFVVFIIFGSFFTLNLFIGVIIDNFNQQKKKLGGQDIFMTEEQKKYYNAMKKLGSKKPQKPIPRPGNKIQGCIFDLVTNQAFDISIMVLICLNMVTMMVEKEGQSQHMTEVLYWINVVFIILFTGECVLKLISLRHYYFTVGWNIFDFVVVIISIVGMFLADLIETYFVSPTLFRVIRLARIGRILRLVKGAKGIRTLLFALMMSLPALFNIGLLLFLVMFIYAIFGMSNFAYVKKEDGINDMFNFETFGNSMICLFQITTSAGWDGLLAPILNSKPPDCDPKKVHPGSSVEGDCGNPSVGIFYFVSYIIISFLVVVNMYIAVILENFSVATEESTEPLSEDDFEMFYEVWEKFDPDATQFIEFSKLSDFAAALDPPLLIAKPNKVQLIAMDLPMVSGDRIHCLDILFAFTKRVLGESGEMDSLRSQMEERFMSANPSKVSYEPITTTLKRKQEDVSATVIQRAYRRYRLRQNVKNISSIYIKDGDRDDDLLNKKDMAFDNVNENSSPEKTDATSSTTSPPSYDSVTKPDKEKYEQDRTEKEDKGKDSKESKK

This assay concerns the target human Nav1.7 (Homo sapiens (Human), UniProt Q15858). In words: FRET-based membrane potential assay, recombinant human sodium channel Nav1.7. The assay is classed as cell-based. The following applies: HEK293 cells stably expressing recombinant human Nav1.7; depolarization with veratridine (EC80) + scorpion venom. As to the method: FRET-Based Membrane Potential Assays.
Recombinant, Human Sodium Channel, Nav1.7.
Two days prior to the experiment, frozen HEK293 cells stably expressing recombinant human Nav1.7 were quickly thawed and plated at 25,000 cells/well in growth medium [DMEM (Invitrogen #11965) with 10% HI FBS (Invitrogen #10082), 2 mM glutamine, 100 units/mL penicillin, 0.1 mg/mL streptomycin (PSG, Sigma #G1146), and 500 μg/mL Geneticin (Invitrogen #10131)] in black-walled, clear-bottom 384-well poly-D-lysine-coated assay plates (Greiner Bio-One, Frickenhausen, Germany) and incubated in a humidified 5% CO2 incubator at 37° C. On the day of the assay, medium was removed by aspiration, and cells were washed with assay buffer [HBSS (Invitrogen, Carlsbad, Calif.) containing 20 mM HEPES (Invitrogen, Carlsbad, Calif.)]. After washing, 30 μL assay buffer containing the fluorescent voltage-sensor probe CC2-DMPE (Invitrogen, Carlsbad, Calif.) at 20 μM and 0.01% pluronic F-127 (Invitrogen, Carlsbad, Calif.) was added to the cells. Cells were incubated for 40 minutes at room temperature in the dark. Following the incubation, the cells were washed and 30 μL assay buffer containing 2.5 μM DiSBAC2(3) substrate (Invitrogen, Carlsbad, Calif.) and 0.5 mM VABSC-1 (Invitrogen, Carlsbad, Calif.) was added to the cells. The cells were incubated for 90 minutes at room temperature in the dark. Fluorescence readings were made using a FLIPR®^TETRA (Molecular Devices, Sunnyvale Calif.) equipped with voltage-sensor probe optics. At the start of each experiment the optimal (EC80) concentration of depolarizing agent (veratridine) was determined by testing a dilution curve of assay buffer containing veratridine (Sigma-Aldrich, St. Louis, Mo.) and 1 mg/mL scorpion venom (SVqq, from Leiurus quinquestriatus; Sigma-Aldrich, St. Louis, Mo.). […] Test compounds in the daughter plate were diluted to (˜3×) solutions in assay buffer immediately before assaying. Using the FLIPR®^TETRA, 20 μL of the (3×) compound solutions were first added to the cells, then 20 μL of depolarizing solution (3×EC80 veratridine+SVqq) were added 3 minutes later to activate the channel. Changes in fluorescence were measured at wavelengths of 440-480 nm and 565-625 nm over the course of the experimental run. Membrane depolarization was expressed as a ratio of the maximum F440-480 nm/F565-625 nm reading above average baseline F440-480 nm/F565-625 nm reading. IC50 values were calculated from curve fits of the ratio data using a four-parameter logistic Hill equation (Accelrys Assay Explorer 3.3 Client, Accelrys, San Diego, Calif.) with percent inhibition plotted against compound concentration.
With `CS(=O)(=O)N1CCN(c2cccc3c2cnn3-c2ccccc2F)C1=O` [Example 6, 1-[1-(2-fluorophenyl)-1H-indazol-4-yl]-3-(methylsulfonyl)imidazolidin-2-one], the IC50 was found to be 1300 nM.

As to `NC(=O)Cn1ccn(-c2cccc3c2cnn3-c2ccccc2F)c1=O` [Example 9, 2-{3-[1-(2-fluorophenyl)-1H-indazol-4-yl]-2-oxo-2,3-dihydro-1H-imidazol-1-yl}acetamide], the IC50 was determined as 959 nM.

In the case of `O=C1NCCN1c1cccc2c1cnn2-c1ccccc1F` [Example 57, 1-[1-(2-fluorophenyl)-1H-indazol-4-yl]imidazolidin-2-one], the IC50 is 9640 nM.

With `NS(=O)(=O)CN1CCN(c2cccc3c2cnn3-c2ccccc2F)C1=O` [Example 58, 1-{3-[1-(2-fluorophenyl)-1H-indazol-4-yl]-2-oxoimidazolidin-1-yl}methanesulfonamide], the half-inhibitory concentration (IC50) amounted to 2290 nM.

In the case of `COCCN1CCN(c2cccc3c2cnn3-c2ccccc2F)C1=O` [Example 59, 1-[1-(2-fluorophenyl)-1H-indazol-4-yl]-3-(2-methoxyethyl)imidazolidin-2-one], the IC50 worked out at 1890 nM.

Turning to `CC(C)(C)C(=O)N1CCN(c2cccc3c2cnn3-c2ccccc2F)C1=O` [Example 60, 1-(2,2-dimethylpropanoyl)-3-[1-(2-fluorophenyl)-1H-indazol-4-yl]imidazolidin-2-one], the IC50 was found to be 1990 nM.

With `O=C1CC(C(=O)N2CCN(c3cccc4c3cnn4-c3ccccc3F)C2=O)C1` [Example 61, 1-[1-(2-fluorophenyl)-1H-indazol-4-yl]-3-[(3-oxocyclobutyl)carbonyl]imidazolidin-2-one], the IC50 was found to be 2240 nM.

In the case of `CNS(=O)(=O)N1CCN(c2cccc3c2cnn3-c2ccccc2F)C1=O` [Example 62, 3-[1-(2-fluorophenyl)-1H-indazol-4-yl]-N-methyl-2-oxoimidazolidine-1-sulfonamide], the IC50 was 1710 nM.

`O=C1NCCN1CCN1CCN(c2cccc3c2cnn3-c2ccccc2F)C1=O` [Example 63, 1-[1-(2-fluorophenyl)-1H-indazol-4-yl]-3-[2-(2-oxoimidazolidin-1-yl)ethyl]imidazolidin-2-one]: the IC50 stood at 4120 nM.

On to `CC(C)(O)CN1CCN(c2cccc3c2cnn3-c2ccccc2F)C1=O` [Example 64, 1-[1-(2-fluorophenyl)-1H-indazol-4-yl]-3-(2-hydroxy-2-methylpropyl)imidazolidin-2-one], for which the IC50 is 9520 nM.

`COC[C@H]1CC[C@H](COC)N1C(=O)CN1CCN(c2cccc3c2cnn3-c2ccccc2F)C1=O` [Example 65, 1-{2-[(2R,5R)-2,5-bis(methoxymethyl)pyrrolidin-1-yl]-2-oxoethyl}-3-[1-(2-fluorophenyl)-1H-indazol-4-yl]imidazolidin-2-one]: the IC50 stood at 678 nM.

Consider `O=C(CN1CCN(c2cccc3c2cnn3-c2ccccc2F)C1=O)N1CCN2CCCC2C1` (stereo not drawn) [Example 66, 1-[1-(2-fluorophenyl)-1H-indazol-4-yl]-3-[2-(hexahydropyrrolo[1,2-c]pyrazin-2(1H)-yl)-2-oxoethyl]imidazolidin-2-one], for which the IC50 was 804 nM.

For `CC(C)OC1CN(C(=O)CN2CCN(c3cccc4c3cnn4-c3ccccc3F)C2=O)C1` [Example 67, 1-[1-(2-fluorophenyl)-1H-indazol-4-yl]-3-[2-(3-isopropoxyazetidin-1-yl)-2-oxoethyl]imidazolidin-2-one], the IC50 is 2430 nM.

`CN(CC1CCOCC1)C(=O)CN1CCN(c2cccc3c2cnn3-c2ccccc2F)C1=O` [Example 68, 2-{3-[1-(2-fluorophenyl)-1H-indazol-4-yl]-2-oxoimidazolidin-1-yl}-N-methyl-N-(tetrahydro-2H-pyran-4-ylmethyl)acetamide]: the half-inhibitory concentration (IC50) came out at 3570 nM.

Turning to `CC1CN(C(=O)CN2CCN(c3cccc4c3cnn4-c3ccccc3F)C2=O)CC(C)O1` (stereo not drawn) [Example 70, 1-[2-(2,6-dimethylmorpholin-4-yl)-2-oxoethyl]-3-[1-(2-fluorophenyl)-1H-indazol-4-yl]imidazolidin-2-one], the IC50 came to 12200 nM.

These data come from US9783527B2, “Indazole ureas and method of use” (AbbVie Inc., priority 2014, dated 2017).
